# In patent publication US6310095A, “Inhibitors of protein isoprenyl transferases” (University of Pittsburgh, priority 1998, dated 2001):
# Where a name gives a salt, the structure may show the parent alone.
# Target: T1, protein farnesyltransferase (Rattus norvegicus, UniProt Q02293+Q04631)
# T1 construct: Rat brain protein farnesyltransferase activity is measured; from tissue; host or cells: rat brain; purified according to Reiss et al., Cell 62:81-88 (1990), steps one through three
# Test: in vitro inhibition of protein farnesyltransferase (scintillation proximity assay, biotin-K Ras B fragment)
# Assay type: biochemical
# Conditions: at 1 × 10^-6 M
# Procedure, shortened: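 Rat brain enzyme, purified through three steps, in a scintillation proximity assay kit with biotin-K Ras B fragment substrate at 0.1 mM final. Value is % inhibition of farnesylation.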
row,SMILES,% inhibition of farnesyltransferase [%]
1,CSCC[C@H](NC(=O)c1ccc(OCCCc2ccccc2)cc1-c1ccccc1C)C(=O)[O-].[Li+] [Example 879],95
2,CSCC[C@H](NC(=O)c1ccc(COCC(CC2CCCCC2)CC2CCCCC2)cc1-c1ccccc1C)C(=O)O [Example 889],95

# Same assay, conditions: at 1 × 10^-6 M; read-out: % inhibition of farnesyltransferase
row,SMILES,inhibition at 1 µM [%]
1,"CSCC[C@H](NC(=O)c1ccc(CN(Cc2cncs2)S(C)(=O)=O)cc1-c1ccccc1C)C(=O)O [Example 878, N-[4-N-(methanesulfonyl-N-thiazol-2-ylmethyl)aniinomethyl-2-(2-methylphenyl)-benzoyl]methionine]",95
2,"CSCC[C@H](NC(=O)c1ccc(CN(C(=O)OC(C)(C)C)C(CC2CCCCC2)CC2CCCCC2)cc1-c1ccccc1C)C(=O)O [Example 886, N-[4-N-t-Butyloxycarbonyl-N-(1,3-dicyclohexylpropan-2-yl)aminomethyl-2-(2-methylphenyl)-benzoyl]methionine lithium salt]",35

# Same assay, conditions: at 1 × 10^-7 M
row,SMILES,% inhibition of farnesyltransferase [%]
1,CSCC[C@H](NC(=O)c1ccc(COCc2cnco2)cc1-c1ccccc1C)C(=O)[O-].[Li+] [Example 891],94
2,CSCC[C@H](NC(=O)c1ccc(COCc2cnc(-c3cccc(Cl)c3)o2)cc1-c1ccccc1C)C(=O)[O-].[Li+] [Example 893],87
3,CSCC[C@H](NC(=O)c1ccc(COCc2cnc(-c3ccc(Cl)cc3)o2)cc1-c1ccccc1C)C(=O)[O-].[Li+] [Example 894],89
4,CSCC[C@H](NC(=O)c1ccc(COCc2cnc(C(C)(C)C)s2)cc1-c1ccccc1C)C(=O)[O-].[Li+] [Example 895],92
5,COc1ncc(COCc2ccc(C(=O)N[C@@H](CCSC)C(=O)O)c(-c3ccccc3C)c2)s1 [Example 896],96

# Same assay, conditions: at 1 × 10^-8 M
row,SMILES,% inhibition of farnesyltransferase [%]
1,CSCC[C@H](NC(=O)c1ccc(CO[C@H](CSC)CC2CCCCC2)cc1-c1ccccc1C)C(=O)O [Example 882],79
2,CSCC[C@H](NC(=O)c1ccc(CO[C@H](CSC(C)(C)C)CC2CCCCC2)cc1-c1ccccc1C)C(=O)O [Example 883],91
3,CSCC[C@H](NC(=O)c1ccc(CO[C@H](CSc2ccccc2)CC2CCCCC2)cc1-c1ccccc1C)C(=O)O [Example 884],94
4,CSCC[C@H](NC(=O)c1ccc(CO[C@@H](CC2CCCCC2)CN2CCOCC2)cc1-c1ccccc1C)C(=O)O [Example 885],95
5,CSCC[C@H](NC(=O)c1ccc(CON=C(Cc2ccccc2)Cc2ccccc2)cc1-c1ccccc1C)C(=O)O [Example 888],86
6,CSCC[C@H](NC(=O)c1ccc(COCc2cnc(-c3ccccc3Cl)o2)cc1-c1ccccc1C)C(=O)[O-].[Li+] [Example 892],59
7,CSCC[C@H](NC(=O)c1ccc(COCc2cnc(-c3ccccc3Cl)s2)cc1-c1ccccc1C)C(=O)[O-].[Li+] [Example 897],76
8,CSCC[C@H](NC(=O)c1ccc(COCc2cnc(-c3cccc(F)c3)s2)cc1-c1ccccc1C)C(=O)[O-].[Li+] [Example 898],82
9,CSCC[C@H](NC(=O)c1ccc(COCc2cnc(-c3cccc(Cl)c3)s2)cc1-c1ccccc1C)C(=O)[O-].[Li+] [Example 899],88

# Same assay, conditions: at 1 × 10^-8 M; read-out: % inhibition of farnesyltransferase
row,SMILES,inhibition at 0.01 µM [%]
1,"CSCC[C@H](NC(=O)c1ccc(CN(CCC2CCCCC2)C2CC2)cc1-c1ccccc1C)C(=O)O [Example 880, N-[4-(N-2-Cyclohexylethyl-N-cyclopropylaminomethyl)-2-(2-methylphenyl)benzoyl]methionine]",95
2,CSCC[C@H](NC(=O)c1ccc(CN(Cc2cncs2)C2CCSCC2)cc1-c1ccccc1C)C(=O)O [Example 881],69
3,"CSCC[C@H](NC(=O)c1ccc(CN[C@@H](CC2CCCCC2)C(=O)N2CCCCC2)cc1-c1ccccc1C)C(=O)O [Example 887, N-[4-N-(3-Cyclohexyl-1-oxo-1-piperidin-1-ylpropan-2-yl)aminomethyl-2-(2-methylphenyl)benzoyl]-methionine lithium salt]",92
